Experimental data taken from patent publication US20160213632A1, “Memory Performance and Prevention and Treatment of Neurodegenerative Diseases” (Max Planck Florida Institute for Neuroscience, priority 2015, published 2016).
“Also recorded” adds a separate entry of the source.

Assays:
CA1 neurons = experiment: Dendritic spine density in cultured (organotypic) hippocampal slices treated with Aβ; format: cell-based, mice
Experimental: Organotypic hippocampal slice cultures (300 μm thick) were prepared from mice at postnatal day 6 or 7. After 1 week in culture, slices were transfected using biolistic gene transfer. Aβ stock solution (200 μM) was prepared in 1% NH4OH as a vehicle and added directly to the culture medium at a final concentration of 1 μM. FTI-277 was dissolved in DMSO and added directly to the culture medium at a final concentration of 10 μM.

organotypic slices = organotypic slices (Szatmari et al, 2013); cited from earlier work
Ras = experiment: Active Ras pull-down assay in hippocampus of AD model (APP) mice; format: in vivo; conditions: hippocampus of 6 months old APP mice; daily IP injections for 3 consecutive days
Experimental: (§1) As a model for AD, male hAPPJ20 transgenic mice were used (Mucke et al., 2000). Non-transgenic male littermates were used for controls.
The level of active Ras in hippocampal lysates from CentA1 KO mice and their wild type litter mates was measured with an active Ras pull-down and detection kit and following the instructions from manufacturer (Thermo Scientific). Western blotting was conducted with mouse anti-Ras antibody.

ERK1/2 = experiment: Western blotting for active/phosphorylated ERK1/2 in AD model mice; format: in vivo; conditions: daily IP injections for 3 consecutive days
Experimental: as §1
Protein expression and/or phosphorylation was evaluated by standard western blotting protocol using the following antibodies: goat anti-centaurin-α1 (Abcam; 1:500); mouse anti-β-actin (Sigma, 1:2000); mouse 6E10 (Covance, 1:1000); rabbit anti-phosphoERK1/2 (Cell Signaling Technologies, 1:1000); mouse anti-ERK1/2 (Cell Signaling Technologies, 1:1000); mouse anti-Ras (Pierce, 1:1000); rabbit anti-Hsp10 (Cell Signaling Technologies, 1:1000); rabbit anti-Hsp60 (Cell Signaling Technologies, 1:1000); and HRP-labeled anti-mouse, anti-goat, or anti-rabbit IgG antibodies (BioRad; 1:2000).

Q: Which Aβ-induced spine loss (CA1 neurons; organotypic slices, FTI-277 10 μM, Aβ 1 μM) does the source give for `COC(=O)[C@H](CCSC)NC(=O)c1ccc(NC[C@@H](N)CS)cc1-c1ccccc1` [FTI-277] here?
A: The Aβ-induced spine loss was “prevented”.

Q: And the “Aβ-induced decreased mEPSC frequency” value (organotypic slices)?
A: The value was “prevented”.

Q: For `CSCC[C@H](NC(=O)c1ccc(NC[C@@H](N)CS)cc1-c1ccccc1)C(=O)O` [FTI-276], which “Ras activity (pull-down assay)” value (Ras) is on record?
A: The value was “reduced; also recorded: prevented Ras hyperactivation”.

Q: And the “active/phosphorylated ERK1/2 (downstream of Ras)” value (ERK1/2)?
A: The value was “reduces the activity of signaling pathways downstream of Ras; also recorded: reduced phosphorylation/activation of ERK1/2”.

Q: And the “dendritic spine density in CA1 neurons exposed to Aβ” value (CA1 neurons; cultured hippocampal slices, vehicle or Aβ in presence or absence of FTI-276 (FIG. 6D))?
A: The value was “restored”.
